Test results: patent US20240024403A1, “Compositions and Methods for Managing Weight” (Unigen, Inc., priority 2012, published 2024)
Values joined by “and” are separate entries in the source; they are usually repeats but may differ in a detail not shown here. Equal entries are not always repeated. “Also recorded” adds a separate entry of the source.

Experiments:
[1] = 14-day study in high-fat-diet fed C57BL/6J mice; assay type: in vivo; settings: 30 mg/kg daily oral, 14 days
Description: A 14-day study was used to evaluate the effect of Mutamba EtOH extract fraction 84/F6 on body weight gain in high-fat-diet (HFD) fed C57BL/6J mice. Male C57BL/6J mice at the age of 6 weeks were purchased from Charles River Laboratories (Wilmington, MA) and acclimated for one week. On the day 0 (treatment start), body weights were taken for all the mice and randomly assigned to a group of four treatment groups as follows: (1) 8 mice/group received positive control=Alli; (2) 15 mice/group received Mutamba fraction 84/F6; (3) 8 mice/group received vehicle only (0.5% carboxymethyl cellulose) given to HFD control; and (4) 8 mice/group received vehicle only given to untreated normal diet control. Mice received a daily oral dose of Alli at 30 mg/kg and Mutamba 84/F6 at 1 g/kg for 14 days. Once mice received their first respective dose, they were provided ad libitum a 60% kcal high fat-diet, except for the normal diet group. Body weights were taken daily for the duration of study except on weekends. […] Blood glucose levels were measured using the Contour blood glucose monitoring kit (Bayer Health Care). Total triglyceride and cholesterol levels were measured using the CardioChek Analyzer with PTS panel test strips (Polymer Technology System, Inc, Indianapolis, IN).

[2] = test system: ghrelin; experiment: Plasma active ghrelin level in DIO mice (ELISA); assay type: in vivo
Experimental: (§1) Obese mice were treated with various three component compositions to test the anti-obesity and appetite effects of such compositions. Three component Composition 1 (Magnolia:Morus:Yerba Mate) produced according to the Example 38, three component Composition 2 (Magnolia:Morus:Mutamba) produced according to the Example 42, three component Composition 3 (Morus: Rosemary:Yerba Mate) produced according to the Example 39, and three component Composition 9 (Morus:Rosemary:Areca) produced according to the Example 41, were each separately administrated orally to DIO mice as described in the Example 48. The high fat diet (HFD) mice were divided into multiple treatment groups with a total of 10 animals per group. The mice were treated with one of the following: Composition 1 (1300 mg/kg/day), Composition 2 (1300 mg/kg/day), Composition 3 (1700 mg/kg/day), or Composition 9 (1700 mg/kg/day). Control groups included a normal diet group given vehicle only (ND, negative control), a high fat diet group given vehicle only (HFD, negative control), an orlistat group (ORI, 40 mg/kg, 2 times/day, positive control), and a sibutramine group (10 mg/kg, 1 time/day, positive control). Body weight and feed intake were measured daily for 2 weeks after treatment and then twice a week until the end of the 7 week study. At week 2 and week 7 after treatment, mice were fasted for 16 hours and then five animals were examined to measure plasma concentrations of leptin and ghrelin. Leptin and ghrelin levels were measured by using commercial ELISA kits specific for leptin or ghrelin (Millipore Co., Billerica, MA) according to the manufacturer's instructions. Measurements were taken using a microplate reader (Victor™ X3, PerkinElmer Inc., USA) and analyzed with PerkinElmer 2030 workstation computer software.

[3] = test system: leptin; experiment: Plasma leptin level in DIO mice (ELISA); assay type: in vivo
Experimental: as §1

[4] = High fat diet induced obesity (DIO) rat model; assay type: in vivo, Spraue-Dawley rats; set-up: NASH (sum) / NSAH (sum): scale not given here; Epididymal fatty tissue weight / Retroperitoneal fatty tissue weight / Total Fat / Epididymal Fat, absolute weight / Retroperitoneal Fat, absolute weight: unit not given here
Experimental: Male Spraue-Dawley rats, age 4-6 weeks (OrientBio, Inc.; Seongnam, Korea) were housed individually in Polycarbonate cages in a room with a 12 hr:12 hr light-dark cycle and an ambient temperature of 24° C. All the rats were fed a commercial chow diet for 1 week after arrival in the animal facility. Rats were then divided into normal and obesity groups and fed with normal diet (ND) and high fat diets (HFD) respectively. The HFD group was divided into multiple treatment groups: a high fat diet vehicle group (HFD), an orlistat (purchased as OTC drug Alli®) positive control treatment group (ORI, 80 mg/kg of animal weight, 2 times/day). In some examples, sibutramine was used as a positive control (SIB, 3 mg/kg for rat studies and […] for mice studies).
Body weight was measured once or twice per week and feed intake was measured twice per week. Body weight gain was determined for each study group by measurement of the body weight difference for each study group between each successive week of the study. At the end of the experimental period, following a 12-h fasting period, the animals were anesthetized with ether, and blood was drawn from the abdominal vein. Liver and kidney and adipose tissues (epididymal, retroperitoneal, perirenal adipose tissues) were removed from each animal, rinsed with physiological saline, and weighted. Serum concentrations of glucose, total cholesterol and LDL-cholesterol were determined using automatic analyzer (INTEGRA 400, Roche, Germany). Statistical significance of test results was performed by Student's t-test.

[5] = DIO mice plasma, 2-week treatment
[6] = DIO mice plasma, 7-week treatment
[7] = DIO rats, ORI 80 mg/kg, 55 day study, mean
[8] = DIO rats, blood at end of study, ORI 80 mg/kg, mean
[9] = DIO rats, liver pathology, ORI 80 mg/kg, mean
[10] = DIO rats, liver pathology score, ORI group, mean

Structure (SMILES): CCCCCCCCCCC[C@@H](C[C@@H]1OC(=O)[C@H]1CCCCCC)OC(=O)[C@H](CC(C)C)NC=O [ORI, orlistat]
- body weight gain vs vehicle treated HFD group [1]: decrease in weight gain only on day 14 of treatment
- fasting blood glucose, total cholesterol, triglyceride vs vehicle treated HFD group [1]: statistically significant higher levels of fasting triglyceride
- Active Ghrelin (pg/ml) 2-week [2, 5]: 1316.4 pg/mL
- Active Ghrelin (pg/ml) 7-week [2, 6]: 1353.7 pg/mL
- active ghrelin level vs HFD group ([2]; week 2 and week 7, orlistat 40 mg/kg 2 times/day, sibutramine 10 mg/kg 1 time/day): no effect on active ghrelin levels at either week 2 or week 7
- Leptin (ng/ml) 2-week [3, 5]: 11.6 ± 0.06 ng/mL
- Leptin (ng/ml) 7-week [3, 6]: 19.0 ± 0.24 ng/mL
- plasma leptin level vs HFD group ([3]; week 2 and week 7, Composition 2 1300 mg/kg/day, orlistat 40 mg/kg 2 times/day, sibutramine 10 mg/kg 1 time/day): significantly reduced leptin level after 2 weeks of treatment
- Body Weight Gain [4, 7]: 1.22 g/day
- Food Intake [4, 7]: 25.71 g/day
- Food Efficiency Ratio (FER) ([4]; DIO rats, ORI 80 mg/kg, 55 day study, body weight gain/food intake): 0.05
- Weight Gain ([4]; DIO rats, ORI 80 mg/kg, day 3, mean): 2.80
- Weight Gain ([4]; DIO rats, ORI 80 mg/kg, day 7, mean): 1.04
- Weight Gain ([4]; DIO rats, ORI 80 mg/kg, day 10, mean): 0.82
- Weight Gain ([4]; DIO rats, ORI 80 mg/kg, day 14, mean): 3.40
- Weight Gain ([4]; DIO rats, ORI 80 mg/kg, day 17, mean): 3.34
- Weight Gain ([4]; DIO rats, ORI 80 mg/kg, day 21, mean): 15.89
- Weight Gain ([4]; DIO rats, ORI 80 mg/kg, day 24, mean): 19.89
- Weight Gain ([4]; DIO rats, ORI 80 mg/kg, day 28, mean): 28.19
- Weight Gain ([4]; DIO rats, ORI 80 mg/kg, day 31, mean): 33.33
- Weight Gain ([4]; DIO rats, ORI 80 mg/kg, day 35, mean): 38.43
- Weight Gain ([4]; DIO rats, ORI 80 mg/kg, day 37, mean): 43.95
- Weight Gain ([4]; DIO rats, ORI 80 mg/kg, day 42, mean): 49.06
- Weight Gain ([4]; DIO rats, ORI 80 mg/kg, day 45, mean): 59.88
- Weight Gain ([4]; DIO rats, ORI 80 mg/kg, day 49, mean): 63.68
- Weight Gain ([4]; DIO rats, ORI 80 mg/kg, day 52, mean): 71.12
- Weight Gain ([4]; DIO rats, ORI 80 mg/kg, day 55, mean): 68.11
- Epididymal fatty tissue weight ([4]; DIO rats, ORI 80 mg/kg, mean): 17.87
- Perirenal fatty tissue weight ([4]; DIO rats, ORI 80 mg/kg, mean): 6.11
- Retroperitoneal fatty tissue weight ([4]; DIO rats, ORI 80 mg/kg, mean): 19.21
- Total Fat ([4]; DIO rats, ORI 80 mg/kg, sum of epididymal, retroperitoneal and perirenal fat): 43.19
- ALP [4, 8]: 480.16 U/L
- ALT [4, 8]: 35.65 U/L
- AST [4, 8]: 146.39 U/L
- LDL-C [4, 8]: 10.63 mg/dL
- T-chol [4, 8]: 110.13 mg/dL
- TG [4, 8]: 216.38 mg/dL
- Hepatocellular ballooning (0-2) [4, 9]: 0.675 and 0.625
- Lobular Inflammation (0-3) [4, 9]: 1.500
- NASH (sum) [4, 9]: 2.875
- Steatosis (0-3) [4, 9]: 0.750
- Epididymal Fat, absolute weight ([4]; DIO rats, ORI group, mean): 17.87
- FER (Food efficiency ratio) ([4]; DIO rats, ORI group, mean): 0.05
- Food Intake ([4]; DIO rats, ORI group, mean): 25.71 g/day
- LDL-C ([4]; DIO rats, ORI group, mean): 10.63 mg/dL
- Perirenal Fat, absolute weight ([4]; DIO rats, ORI group, mean): 6.11
- Retroperitoneal Fat, absolute weight ([4]; DIO rats, ORI group, mean): 19.21
- T-chol ([4]; DIO rats, ORI group, mean): 110.13 mg/dL
- TG ([4]; DIO rats, ORI group, mean): 216.38 mg/dL
- Total Fat ([4]; DIO rats, ORI group, mean): 43.19
- Weight Gain ([4]; DIO rats, ORI group, mean): 1.22 g/day
- Weight Gain ([4]; DIO rats, day 3, ORI group, mean): 2.80
- Weight Gain ([4]; DIO rats, day 7, ORI group, mean): 1.04
- Weight Gain ([4]; DIO rats, day 10, ORI group, mean): 0.82
- Weight Gain ([4]; DIO rats, day 14, ORI group, mean): 3.40
- Weight Gain ([4]; DIO rats, day 17, ORI group, mean): 3.34
- Weight Gain ([4]; DIO rats, day 21, ORI group, mean): 15.89
- Weight Gain ([4]; DIO rats, day 24, ORI group, mean): 19.89
- Weight Gain ([4]; DIO rats, day 28, ORI group, mean): 28.19
- Weight Gain ([4]; DIO rats, day 31, ORI group, mean): 33.33
- Weight Gain ([4]; DIO rats, day 35, ORI group, mean): 38.43
- Weight Gain ([4]; DIO rats, day 37, ORI group, mean): 43.95
- Weight Gain ([4]; DIO rats, day 42, ORI group, mean): 49.06
- Weight Gain ([4]; DIO rats, day 45, ORI group, mean): 59.88
- Weight Gain ([4]; DIO rats, day 49, ORI group, mean): 63.68
- Weight Gain ([4]; DIO rats, day 52, ORI group, mean): 71.12
- Weight Gain ([4]; DIO rats, day 55, ORI group, mean): 68.11
- Hepatocellular ballooning (0-2) [4, 10]: 0.625
- Lobular Inflammation (0-3) [4, 10]: 1.500
- NSAH (sum) [4, 10]: 2.875
- Steatosis (0-3) [4, 10]: 0.750
- blood biochemistry parameters vs HFD group ([4]; orlistat 80 mg/kg, 2 times/day): no statistically significant decreases in any of the measured blood components; also recorded: did not show any statistically significant decreases in any of the measured blood chemistry components
- body weight gain vs HFD group ([4]; orlistat 80 mg/kg, 2 times/day): statistically significant decreases in body weight gain on day 7 through to day 55
- liver pathology (NASH score) vs HFD group ([4]; orlistat 80 mg/kg, 2 times/day): statistically significant decreases in Steatosis, Lobular Inflammation, Hepatocellular ballooning and NASH score
- organ and fat pad weights vs HFD group ([4]; orlistat 80 mg/kg, 2 times/day): statistically significant decreases in all categories of fat measurement; also recorded: statistically significant decreases in Epididymal Fat, Retroperitoneal Fat, Perirenal Fat and Total Fat
- weight gain per day, food intake per day, food efficiency ratio (FER) vs HFD group ([4]; orlistat 80 mg/kg, 2 times/day): statistically lower values than the HFD group for average Body Weight Gain per day, average Food Intake per day and Food Efficiency Ratio
